From patent publication US9446087B2, “Anti-resorptive and bone building dietary supplements and methods of use” (priority 2006, dated 2016)
Several values for one entry are separate records, joined by “and”; a condition that tells them apart may be missing. Equal entries are not always repeated. Marks after values point to notes of the source that are not given here.

Columns and labels:
BMP-2 promoter = test: BMP2 Promoter assay (2T3-BMP2-Luciferase cells, luciferase); format: cell-based, murine
BMP-2 protein = test: BMP-2 Protein Expression Assay (Hu09 cells, ELISA); format: cell-based
Description: The cells are treated with different proteasome inhibitors for 24 hours. After incubation, the conditioned media is transferred into microcentrifuge tubes and centrifuged at 14,000 rpm for 2-3 minutes to remove cellular debris. The concentration of BMP-2 protein in the supernatant is then determined using the standard BMP-2 Elisa Kit (R&D ELISA KIT DBP200). Recombinant hBMP-2 (R&D) is used as a standard.

BMP-2 = BMP-2 Gene Expression Assay (MG-63 cells, real time PCR); format: cell-based, human
Description: It is also possible to test for BMP-2 gene expression and protein expression using assays similar to those described above for testing BMP-2 promoter activity. In particular, for gene expression, the human osteosarcoma cell line, MG-63 (ATCC# CRL-1427), is maintained in phenol-red containing MEM (as recommended by ATCC) at 37° C. and 5% CO2. Twenty-four hours prior to experimentation, 3×10^5 cells are seeded in 12-well plates in phenol-red free MEM. […] After an overnight incubation, RNA is extracted using conventional trizol/guanidine isothiocyanate based lysis. The isolated RNA was digested with RNase-free DNase I to remove any DNA contamination and then reverse transcribed to cDNA using random hexamer as well as oligo(dT) primers according to the manufacturer's instructions (Stratagene). Quantitative real time PCR is performed using FAM-labeled specific primers for BMP-2 and HEX-labeled specific primers for 18S rRNA (Invitrogen). All reactions are carried out in triplicate and the relative amount of mRNAs in treated versus untreated samples is calculated using the comparative CT method established by Applied Biosystems (2001). Gene expression changes of 2-fold or greater are considered significant.

Neonatal murine calvaria = test: Calvarial Assay to Measure Bone Growth; format: cell-based, Swiss white mice
Description: Neonatal murine calvaria from 4 day old Swiss white mice are excised, placed into BGJ media (Sigma), and cut in half along the midline suture. One milliliter of BGJ media supplemented with 0.1% bovine serum albumin (BSA) is added to each well of a 12 well tissue culture plate (Costar) to which the relevant factors or vehicles are added. Each half calvaria is placed on a stainless steel grid in the above media at the media/air interface. Usually 4 bones per experimental group are used. […] Factors to be tested are added on Day 0 (the day of dissection) and media is changed at 24 and 96 hours (if a 7 day assay is required). Calvaria are maintained in humidified air (5% Co2), at 37° C. Following the period of incubation, the calvaria are then removed and fixed overnight in 10% formalin. The calvaria are then decalcified in 14% EDTA overnight and are then embedded in paraffin wax. Sections are then cut, using a standard microtome, along the midline suture to reveal the coronal suture and the region posterior to this suture. Four micrometer sections were taken initially and at two sequential […] depths. Sections are placed on coated glass slides (Superfrost plus, Fisher Scientific, Pittsburgh, Pa.) and stained with hematoxylin and eosin. The total and new bone area (expressed as mm^2), suture thickness (mm), and number of cells lining the bone surface are determined in the section posterior to the […] suture. Histomorphometric analysis is performed using the Osteomeasure System (Osteometrics INC, Atlanta, Ga.).

[1] = tested on: Female, Sprague Dawley rats; test: In Vivo Study to Measure Bone Growth - histomorphological measurements; set-up: species or system rat; settings: positive control, 50 μg/kg (10 μg/200 g)/3 × per week; 35 days; vs placebo group
Description: Three different formulas were tested in an in vivo study involving female, intact rats, aged approximately 12-14 weeks, with approximate body weights between 200-250 grams. Formula 1 included dosages of quercetin anhydrate and licorice at 250 mg quercetin:250 mg licorice ethanol extract and 500 mg quercetin:500 mg licorice ethanol extract. Formula 2 included dosages of quercetin anhydrate and licorice at 250 mg quercetin:125 mg licorice ethanol extract; 500 mg quercetin:250 mg licorice ethanol extract; and 1000 mg quercetin:500 mg licorice ethanol extract. Formula 3 included dosages of quercetin and licorice at 1000 mg quercetin:200 mg licorice ethanol extract. The study lasted 35 days. Eight separate groups of rats were tested with 15 rats in each group. Two of the eight groups of rats tested were control groups. One was a placebo control group and the other group received 50 μg/kg (10 μg/200 g)/3× per week parathyroid hormone. Parathyroid hormone, known as an anabolic agent, served as a positive control. See, e.g., Turner et al., “Disuse in adult male rats attenuates the bone anabolic response to a therapeutic dose of parathyroid hormone.” J. Appl Physiol. 2006. […]
(§1) The effectiveness of the formulas on bone formation was assessed by outcome measurements that included biomechanical measurement (to assess bone strength and function information), micro-CT (to analyze virtual bone quality and function information), and histomorphology measurement (to analyze bone quality and functional information). […] These measurements were determined after 35 days of treatment.
Six animals from each group were sacrificed on day 35 following treatment. […] To determine the effect of the different formulas on bone formation, trabecula bone volume, trabecular cells number and trabecular separation were assessed by histomorphology technique. […]
Bone mineral apposition rate (MARs), also reported by Table 8, was determined by measuring the mean interlabel distance divided by the time interval (5 days) between the two fluororchromes administered. […]

[2] = tested on: Female, Sprague Dawley rats; test: In Vivo Study to Measure Bone Growth - micro-CT measurements; set-up: species or system rat; settings: positive control, 50 μg/kg (10 μg/200 g)/3 × per week; 35 days; vs placebo group
Description: Three different formulas were tested in an in vivo study involving female, intact rats, aged approximately 12-14 weeks, with approximate body weights between 200-250 grams. Formula 1 included dosages of quercetin anhydrate and licorice at 250 mg quercetin:250 mg licorice ethanol extract and 500 mg quercetin:500 mg licorice ethanol extract. Formula 2 included dosages of quercetin anhydrate and licorice at 250 mg quercetin:125 mg licorice ethanol extract; 500 mg quercetin:250 mg licorice ethanol extract; and 1000 mg quercetin:500 mg licorice ethanol extract. Formula 3 included dosages of quercetin and licorice at 1000 mg quercetin:200 mg licorice ethanol extract. The study lasted 35 days. Eight separate groups of rats were tested with 15 rats in each group. Two of the eight groups of rats tested were control groups. One was a placebo control group and the other group received 50 μg/kg (10 μg/200 g)/3× per week parathyroid hormone. Parathyroid hormone, known as an anabolic agent, served as a positive control. See, e.g., Turner et al., “Disuse in adult male rats attenuates the bone anabolic response to a therapeutic dose of parathyroid hormone.” J. Appl Physiol. 2006. Vol. 101:881-886, the entire contents of which are incorporated herein by reference.
Table 7 below indicates the formula given to each of the 8 test groups. The dosages in Table 7 are based on the recommended human daily dosages. FDA dose conversion formula (Human equivalent dose (HED, mg/kg)=rat dose in mg/kg×(rat weight in kg/human weight in kg)^0.33) was used to convert the human dose to the rat dose. HED=rat NOAEL×(W-rat/W-human)^(1-b), b=0.67.
Female, Sprague Dawley rats were used (200-250 gm each, ˜12-14 weeks old). Animals were fed at 15 gm/day, which included either a placebo diet or one of the formulas listed above, for a period of 35 days from the beginning of the experiment. Chow was made available each morning to the rats at the rate of 15 grams/rat/day. The rats were allowed free access to water and housed in appropriate cages for the entire experiment. Unrestricted activity was allowed during the entire experiment, which lasted 35 days.
The effectiveness of the formulas on bone formation was assessed by outcome measurements that included biomechanical measurement (to assess bone strength and function information), micro-CT (to analyze virtual bone quality and function information), and histomorphology measurement (to analyze bone quality and functional information). […] These measurements were determined after 35 days of treatment. […]
Obtaining information from a wide range of parameters such as bone mineral density (BMD), bone volume (% bone volume/total volume), trabecular number, and trabecular separation is critical for bone structure assessment quantitatively and qualitatively. […]

[3] = tested on: Female, Sprague Dawley rats; test: In Vivo Study to Measure Bone Growth - biomechanical measurements; set-up: species or system rat; settings: positive control, 50 μg/kg (10 μg/200 g)/3 × per week; 35 days; vs placebo group
Description: Three different formulas were tested in an in vivo study involving female, intact rats, aged approximately 12-14 weeks, with approximate body weights between 200-250 grams. Formula 1 included dosages of quercetin anhydrate and licorice at 250 mg quercetin:250 mg licorice ethanol extract and 500 mg quercetin:500 mg licorice ethanol extract. Formula 2 included dosages of quercetin anhydrate and licorice at 250 mg quercetin:125 mg licorice ethanol extract; 500 mg quercetin:250 mg licorice ethanol extract; and 1000 mg quercetin:500 mg licorice ethanol extract. Formula 3 included dosages of quercetin and licorice at 1000 mg quercetin:200 mg licorice ethanol extract. The study lasted 35 days. […]
as §1
Besides bone mass and bone volume evaluation, bone strength was examined mechanically using two different parameters. One parameter measured the maximum force needed to fracture the bone and the other determined the stiffness (the elasticity) of bone. […]

## O=c1c(O)c(-c2ccc(O)c(O)c2)oc2cc(O)cc(O)c12 [Q, Quercetin]
BMP-2 promoter; 0.05 μg/ml
  BMP2 Promoter assay (ratio to control): 1.00 FOLD
BMP-2 promoter; 0.1 μg/ml
  BMP2 Promoter assay (ratio to control): 1.10 FOLD
BMP-2 promoter; 0.2 μg/ml
  BMP2 Promoter assay (ratio to control): 1.10 FOLD
BMP-2 promoter; 0.4 μg/ml
  BMP2 Promoter assay (ratio to control): 1.00 FOLD
BMP-2 promoter; 0.8 μg/ml
  BMP2 Promoter assay (ratio to control): 1.15 FOLD
BMP-2 promoter; 1.6 μg/ml
  BMP2 Promoter assay (ratio to control): 1.30 FOLD
BMP-2 promoter; 3.2 μg/ml
  BMP2 Promoter assay (ratio to control): 1.80 FOLD
BMP-2 promoter; 6.3 μg/ml
  BMP2 Promoter assay (ratio to control): 2.30 FOLD
BMP-2 promoter; 12.5 μg/ml
  BMP2 Promoter assay (ratio to control): 2.90 FOLD
BMP-2 promoter; 25 μg/ml
  BMP2 Promoter assay (ratio to control): 3.60 FOLD
BMP-2 promoter; 50 μg/ml
  BMP2 Promoter assay (ratio to control): 4.80 FOLD
BMP-2 promoter; 100 μg/ml
  BMP2 Promoter assay (ratio to control): 5.20 FOLD
BMP-2 protein; 1 μg/ml
  BMP-2 Protein Expression: 2.0 FOLD
BMP-2 protein; 10 μg/ml
  BMP-2 Protein Expression: 4.6 FOLD
BMP-2 protein; 100 μg/ml
  BMP-2 Protein Expression: 2.2 FOLD
BMP-2; 0.1 μg/ml
  BMP-2 Expression (fold change): No change (−1.06) fold change
BMP-2; 1 μg/ml
  BMP-2 Expression (fold change): 2 fold change and 2.03 fold change
BMP-2; 5 μg/ml
  BMP-2 Expression (fold change): 2.51 ± 0.14 fold change
BMP-2; 10 μg/ml
  Fold Change in Gene Expression: 2.6 × increase
BMP-2; 20 μg/ml
  BMP-2 Expression (fold change): 4.61 ± 0.07 fold change
BMP-2; 100 μg/ml
  BMP-2 Expression (fold change): 14 fold change
Neonatal murine calvaria; 0.2 ug/ml
  Calvarial Assay Results - Bone Formation Stimulated by Extract Combinations: 6.90 ± 0.56 mm^2 × 10^−3
Neonatal murine calvaria; 0.7 ug/ml
  Calvarial Assay Results - Bone Formation Stimulated by Extract Combinations: 10.30 ± 0.78^a mm^2 × 10^−3
Neonatal murine calvaria; 1 ug/ml
  Calvarial Assay Results - Bone Formation Stimulated by Extract Combinations: 13.70 ± 3.20^a mm^2 × 10^−3
Neonatal murine calvaria; 1 μg/ml
  Calvarial Assay Results- Bone formation: 7.57 ± 1.52 mm^2 × 10^−3
Neonatal murine calvaria; 8.3 ug/ml
  Calvarial Assay Results - Bone Formation Stimulated by Extract Combinations: 0.10 ± 0.10 mm^2 × 10^−3
Neonatal murine calvaria; 10 μg/ml
  Calvarial Assay Results- Bone formation: 13.41 ± 2.50^a mm^2 × 10^−3
Neonatal murine calvaria; 14.3 ug/ml
  Calvarial Assay Results - Bone Formation Stimulated by Extract Combinations: 0.10 ± 0.12 mm^2 × 10^−3
Neonatal murine calvaria; 100 μg/ml
  Calvarial Assay Results- Bone formation: 13.55 ± 1.47^a mm^2 × 10^−3

## CCC(C)(C)C(=O)O[C@H]1C[C@@H](C)C=C2C=C[C@H](C)[C@H](CC[C@@H]3C[C@@H](O)CC(=O)O3)[C@H]21 [Simvastatin]
Neonatal murine calvaria; 0.25 μM, positive control
  Calvarial Assay Results- Bone formation: 7.45 ± 1.34 mm^2 × 10^−3
Neonatal murine calvaria; 0.5 μM, positive control
  Calvarial Assay Results- Bone formation: 9.50 ± 1.00 mm^2 × 10^−3
Neonatal murine calvaria; 1 μM, positive control
  Calvarial Assay Results- Bone formation: 12.5 ± 1.00 mm^2 × 10^−3

B1: PTH: parathyroid hormone, anabolic agent, positive control (protein, UniProt P01270 32-115, looked up)
Parathyroid hormone: SVSEIQLMHNLGKHLNSMERVEWLRKKLQDVHNFVALGAPLAPRDAGSQRPRKKEDNVLVESHEKSLGEADKADVNVLTKAKSQ
modifications: Parathyroid hormone
notes: parathyroid hormone, anabolic agent, positive control
[1]
  Trabecular Separation: −38.30%
  Trabecular thickness: 7.35%
  reduction in trabecular separation: 38.30%
[2]
  % Bone Volume/ Total Volume: 32%^a
  Bone Mineral Density (BMD): 86%^a
  Trabecular Number (N/6 mm^2): 25%^a
  Trabecular separation (mm): −28%^a
[3]
  Bone Stiffness: 0.0%
  Maximum Force Required to Fracture Bones: 0.0%
